Source: patent US20240109917A1 (ACTELION PHARMACEUTICALS LTD, priority 2020, published 2024)

How the values were obtained:
VEGFR2, unphosphorylated = VEGFR2, unphosphorylated (Homo sapiens (Human), UniProt P35968); assay: VEGFR ADP GLO Assay; format: biochemical
[1] = molecular target: Tb-labeled inactive PDGFRβ (Homo sapiens (Human), UniProt P09619); assay: PDGFRβ LanthaScreen Assay; format: binding; conditions: read-out: PDGFR Lantha IC50
Tb-labeled inactive PDGFRβ, sequence (P09619 33-1106): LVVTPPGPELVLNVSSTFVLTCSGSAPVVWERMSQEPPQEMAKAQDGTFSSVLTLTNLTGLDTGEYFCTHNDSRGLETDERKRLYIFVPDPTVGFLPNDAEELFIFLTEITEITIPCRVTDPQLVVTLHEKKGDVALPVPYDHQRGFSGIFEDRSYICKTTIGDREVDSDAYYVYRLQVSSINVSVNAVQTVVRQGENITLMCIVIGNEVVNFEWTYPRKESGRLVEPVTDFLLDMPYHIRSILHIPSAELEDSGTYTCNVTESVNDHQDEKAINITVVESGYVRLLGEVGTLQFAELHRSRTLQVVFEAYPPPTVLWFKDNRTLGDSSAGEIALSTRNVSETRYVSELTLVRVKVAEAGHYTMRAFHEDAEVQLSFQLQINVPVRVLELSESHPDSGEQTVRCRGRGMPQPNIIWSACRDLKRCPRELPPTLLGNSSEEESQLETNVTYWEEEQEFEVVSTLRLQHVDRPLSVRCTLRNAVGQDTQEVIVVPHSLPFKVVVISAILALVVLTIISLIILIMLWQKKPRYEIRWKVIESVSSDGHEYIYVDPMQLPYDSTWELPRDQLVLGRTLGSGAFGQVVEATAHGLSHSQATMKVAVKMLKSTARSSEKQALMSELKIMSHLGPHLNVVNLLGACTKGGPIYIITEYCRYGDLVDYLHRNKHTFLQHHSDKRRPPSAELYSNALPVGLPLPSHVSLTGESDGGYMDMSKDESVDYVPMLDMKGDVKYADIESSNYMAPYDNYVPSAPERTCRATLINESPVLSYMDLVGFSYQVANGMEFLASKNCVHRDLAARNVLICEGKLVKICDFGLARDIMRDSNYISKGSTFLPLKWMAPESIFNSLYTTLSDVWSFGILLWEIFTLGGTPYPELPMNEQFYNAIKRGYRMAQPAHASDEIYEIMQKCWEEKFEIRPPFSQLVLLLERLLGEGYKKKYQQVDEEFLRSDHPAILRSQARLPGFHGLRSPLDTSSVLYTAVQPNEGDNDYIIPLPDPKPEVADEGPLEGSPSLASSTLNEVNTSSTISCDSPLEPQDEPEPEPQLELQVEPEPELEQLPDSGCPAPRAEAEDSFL

VEGFR2, unphosphorylated, sequence (P35968 20-1356): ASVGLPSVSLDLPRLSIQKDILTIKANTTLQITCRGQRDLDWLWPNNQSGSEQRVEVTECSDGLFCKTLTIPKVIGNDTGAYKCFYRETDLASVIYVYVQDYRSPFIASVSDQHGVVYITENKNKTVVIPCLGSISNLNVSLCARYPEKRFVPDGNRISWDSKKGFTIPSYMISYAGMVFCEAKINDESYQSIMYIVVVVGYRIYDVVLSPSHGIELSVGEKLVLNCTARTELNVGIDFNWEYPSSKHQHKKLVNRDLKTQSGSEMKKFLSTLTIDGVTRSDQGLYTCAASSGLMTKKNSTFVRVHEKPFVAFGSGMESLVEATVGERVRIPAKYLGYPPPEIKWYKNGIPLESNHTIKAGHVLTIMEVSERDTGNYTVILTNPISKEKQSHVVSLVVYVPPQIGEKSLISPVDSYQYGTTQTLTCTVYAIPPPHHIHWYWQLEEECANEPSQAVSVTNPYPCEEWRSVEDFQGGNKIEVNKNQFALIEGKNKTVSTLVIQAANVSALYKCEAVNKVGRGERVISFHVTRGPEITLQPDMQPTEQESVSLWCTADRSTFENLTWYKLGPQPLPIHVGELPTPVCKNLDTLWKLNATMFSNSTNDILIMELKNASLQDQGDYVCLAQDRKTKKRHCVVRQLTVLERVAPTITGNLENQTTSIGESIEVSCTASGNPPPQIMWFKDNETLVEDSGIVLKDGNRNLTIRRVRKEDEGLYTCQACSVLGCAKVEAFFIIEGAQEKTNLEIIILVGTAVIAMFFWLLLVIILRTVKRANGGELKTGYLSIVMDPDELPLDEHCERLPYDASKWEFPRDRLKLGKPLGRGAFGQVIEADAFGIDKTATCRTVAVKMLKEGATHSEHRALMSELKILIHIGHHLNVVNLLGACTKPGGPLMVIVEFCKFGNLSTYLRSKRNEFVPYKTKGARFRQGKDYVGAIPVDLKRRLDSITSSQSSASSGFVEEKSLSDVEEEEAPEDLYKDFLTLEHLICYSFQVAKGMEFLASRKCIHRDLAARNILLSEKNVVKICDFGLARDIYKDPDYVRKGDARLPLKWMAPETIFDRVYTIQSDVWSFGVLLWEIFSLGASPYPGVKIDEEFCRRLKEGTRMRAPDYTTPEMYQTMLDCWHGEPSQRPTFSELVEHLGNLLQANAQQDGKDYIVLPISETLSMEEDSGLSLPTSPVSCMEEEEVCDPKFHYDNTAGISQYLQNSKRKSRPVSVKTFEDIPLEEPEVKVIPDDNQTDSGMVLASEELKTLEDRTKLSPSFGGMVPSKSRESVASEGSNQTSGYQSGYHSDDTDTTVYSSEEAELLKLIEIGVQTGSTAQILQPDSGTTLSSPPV

| SMILES | IC50 (VEGFR2, unphosphorylated) | IC50 [1] |
| --- | --- | --- |
| Cc1ncc(NC(=O)CN2CCCC3(COC3)C2)cc1NC(=O)c1cnn2cc(-c3cnn(C)c3)sc12 [Example 24, N-(5-(2-(2-oxa-6-azaspiro[3.5]nonan-6-yl)acetamido)-2-methylpyridin-3-yl)-2-(1-methyl-1H-pyrazol-4-yl)pyrazolo[5,1-b]thiazole-7-carboxamide] | > 7500 nM | 4.5 nM |
| Cc1ncc(NC(=O)OC[C@@H]2CCCN2C)cc1NC(=O)c1cnn2cc(-c3cc[nH]c3)sc12 [Example 258, (S)-(1-methylpyrrolidin-2-yl)methyl (5-(2-(1H-pyrrol-3-yl)pyrazolo[5,1-b]thiazole-7-carboxamido)-6-methylpyridin-3-yl)carbamate] | > 7500 nM | 4.2 nM |
| Cc1ncc(NC(=O)CN2CC(C)(C)C2)cc1NC(=O)c1cnn2cc(-c3ccoc3)sc12 [Example 283, N-(5-(2-(3,3-dimethylazetidin-1-yl)acetamido)-2-methylpyridin-3-yl)-2-(furan-3-yl)pyrazolo[5,1-b]thiazole-7-carboxamide] | > 7500 nM | 2.2 nM |
| Cc1ncc(NC(=O)CN2CC(C)(C)C2)cc1NC(=O)c1cnn2cc(-c3cccc4c3cnn4C)sc12 [Example 286, N-(5-(2-(3,3-dimethylazetidin-1-yl)acetamido)-2-methylpyridin-3-yl)-2-(1-methyl-1H-indazol-4-yl)pyrazolo[5,1-b]thiazole-7-carboxamide] | > 2500 nM | 1 nM |
| Cc1ncc(NC(=O)[C@@H]2CCCN3CCCC[C@H]23)cc1NC(=O)c1cnn2cc(-c3cnn(C)c3)sc12 [Example 308, 2-(1-methyl-1H-pyrazol-4-yl)-N-(2-methyl-5-((1R,9aR)-octahydro-2H-quinolizine-1-carboxamido)pyridin-3-yl)pyrazolo[5,1-b]thiazole-7-carboxamide] | > 7500 nM | 710 nM |
| Cc1ncc(NC(=O)CN2CC(C)(C)C2)cc1NC(=O)c1cnn2cc(-c3cnn(CS(C)(=O)=O)c3)sc12 [Example 265, N-(5-(2-(3,3-dimethylazetidin-1-yl)acetamido)-2-methylpyridin-3-yl)-2-(1-((methylsulfonyl)methyl)-1H-pyrazol-4-yl)pyrazolo[5,1-b]thiazole-7-carboxamide] | > 7500 nM | 8.7 nM |
| Cc1ncc(NC(=O)C2CCCCN2C(C)C)cc1NC(=O)c1cnn2cc(-c3cccnc3O)sc12 (centres unmarked) [Example 314, 2-(2-hydroxypyridin-3-yl)-N-(5-(1-isopropylpiperidine-2-carboxamido)-2-methylpyridin-3-yl)pyrazolo[5,1-b]thiazole-7-carboxamide] | > 7500 nM | 64.4 nM |
| COc1ncccc1-c1cn2ncc(C(=O)Nc3cc(C(=O)NCCN4CCC[C@@H]4C)cnc3C)c2s1 [Example 301, (S)-2-(2-methoxypyridin-3-yl)-N-(2-methyl-5-((2-(2-methylpyrrolidin-1-yl)ethyl)carbamoyl)pyridin-3-yl)pyrazolo[5,1-b]thiazole-7-carboxamide] | > 7500 nM | 1.4 nM |
| CNC(=O)Cn1cc(-c2cn3ncc(C(=O)Nc4cc(NC(=O)CN5CC(C)(C)C5)cnc4C)c3s2)cn1 [Example 279, N-(5-(2-(3,3-dimethylazetidin-1-yl)acetamido)-2-methylpyridin-3-yl)-2-(1-(2-(methylamino)-2-oxoethyl)-1H-pyrazol-4-yl)pyrazolo[5,1-b]thiazole-7-carboxamide] | > 7500 nM | 8.6 nM |
| Cc1ncc(NC(=O)OC[C@@H]2CCCN2C)cc1NC(=O)c1cnn2cc(-c3cccnc3O)sc12 [Example 256, (S)-(1-methylpyrrolidin-2-yl)methyl (5-(2-(2-hydroxypyridin-3-yl)pyrazolo[5,1-b]thiazole-7-carboxamido)-6-methylpyridin-3-yl)carbamate] | > 7500 nM | 14.9 nM |
| Cc1ncc(NC(=O)CN2CC(C)(C)C2)cc1NC(=O)c1cnn2cc(-c3cc[nH]c3)sc12 [Example 285, N-(5-(2-(3,3-dimethylazetidin-1-yl)acetamido)-2-methylpyridin-3-yl)-2-(1H-pyrrol-3-yl)pyrazolo[5,1-b]thiazole-7-carboxamide] | > 7500 nM | 1.3 nM |
| Cc1ncc(NC(=O)CN2CCCC23COC3)cc1NC(=O)c1cnn2cc(-c3cnn(C)c3)sc12 [Example 20, N-(5-(2-(2-oxa-5-azaspiro[3.4]octan-5-yl)acetamido)-2-methyl-pyridin-3-yl)-2-(1-methyl-1H-pyrazol-4-yl)pyrazolo[5,1-b]thiazole-7-carboxamide] | > 7500 nM | 8.2 nM |
| COc1ncccc1-c1cn2ncc(C(=O)Nc3cc(NC(=O)CN4CCCC4)cnc3C)c2s1 [Example 313, 2-(2-methoxypyridin-3-yl)-N-(2-methyl-5-(2-(pyrrolidin-1-yl)acetamido)pyridin-3-yl)pyrazolo[5,1-b]thiazole-7-carboxamide] | > 7500 nM | 2.6 nM |
| Cc1ncc(NC(=O)CN(C)C2CCOCC2)cc1NC(=O)c1cnn2cc(-c3cnn(CC#N)c3)sc12 [Example 299, 2-(1-(cyanomethyl)-1H-pyrazol-4-yl)-N-(2-methyl-5-(2-(methyl(tetrahydro-2H-pyran-4-yl)amino)acetamido)pyridin-3-yl)pyrazolo[5,1-b]thiazole-7-carboxamide] | > 7500 nM | 6 nM |
| Cc1ncc(NC(=O)CN2CCc3ccncc3C2)cc1NC(=O)c1cnn2cc(-c3cnn(C)c3)sc12 [Example 23, N-(5-(2-(3,4-dihydro-2,7-naphthyridin-2 (1H)-yl)acetamido)-2-methylpyridin-3-yl)-2-(1-methyl-1H-pyrazol-4-yl)pyrazolo[5,1-b]thiazole-7-carboxamide] | > 7500 nM | 1.3 nM |
| COc1ncccc1-c1cn2ncc(C(=O)Nc3cc(NC(=O)OCCN4CCCC4(C)C)cnc3C)c2s1 [Example 254, 2-(2,2-dimethylpyrrolidin-1-yl)ethyl (5-(2-(2-methoxypyridin-3-yl)pyrazolo[5,1-b]thiazole-7-carboxamido)-6-methylpyridin-3-yl)carbamate] | > 7500 nM | 2.6 nM |
